The values below come from paper PMC5471252, “Anti-leukemia activity of a Hsp70 inhibitor and its hybrid molecules” (Scientific Reports, 2017).

For data set [1], the system named is human leukemia cells (HL-60, KG-1, THP-1, U937, Jurkat and K562 cells). The experiment in a line: MTT assay, all tested leukemia cells (summary statements). The conditions noted are these: all tested leukemia cells, MTT, compared with Az, GD and imatinib. The protocol:
To assess anti-leukemia activity of Az, several human leukemia cells (HL-60 cells, acute myeloid leukemia; Jurkat cells, acute T-lymphocytic leukemia; KG-1 cells, acute myeloid leukemia; U937 cells, acute myeloid leukemia; THP-1 cells, acute monocytic leukemia; K562 cells, chronic myeloid leukemia) were incubated with Az for 48 h. […] An MTT assay was then performed to measure cell viabilities.
Cells were exposed to each compound (a HCl salt form) at various concentrations for indicated time periods (24 or 48 h) in culture media. MTT assays were conducted according to known procedures. The absorbance at 570 nm was determined by employing a microplate reader (TECAN, Infinite® 200 PRO).

Data set [2] concerns the target T1, ATPase domain of Hsp70 (Homo sapiens, UniProt P0DMV8).
T1 construct: mixed with 2 µg of an ATPase domain of Hsp70
Kind of data set: PiColorLock ATPase assay, Hsp70. The conditions noted are these: 10, 20 and 40 µM compound, 10 µM ATP, compared with Az. The data set is classed as biochemical. The protocol: (§1) Inhibition by the hybrids on the ATPase activities of Hsp70 and Hsp90 was determined by using a PiColorLock assay and on the kinase activity of Abl by using a radiometric assay.
ATPase assays. ATPase assays were conducted in 20 mM Tris-HCl, 10 mM MgCl2 and 100 mM KCl buffer solution mixed with 2 µg of an ATPase domain of Hsp70. Each compound (10, 20 and 40 µM) was added to the protein solution in a 96-well plate. After the mixture was placed in the plate for 30 min at room temperature, 10 µM ATP was added to the mixture and the mixture was incubated for 3 h at 37 °C. To measure ATPase activity, 10 µl of a 1:100 mixture of PiColorLock Gold reagent (Innova Biosciences) and an accelerator was added to each well. After 5 min at room temperature, 4 µL of a stabilizer was added to the mixture and then incubated for additional 30 min before taking measurement. The absorbance at 620nm was measured by using an Infinite® 200 PRO multimode microplate reader. The same procedure was used to measure ATPase activity of Hsp90 except concentrations of protein (1 µg) and ATP (1 mM).
Supplementary Figure S10. Inhibitory effect of hybrid molecules on Hsp70, Hsp90 and Abl activities. (a) ATPase activity of Hsp70 was measured by using a Pi-Colorlock assay after incubation of an ATPase domain of Hsp70 with various concentrations of indicated molecules and 10 µM ATP (mean ± s.d., n =3). (b) ATPase activity of Hsp90 was measured by using a Pi-Colorlock assay after incubation of Hsp90 with various concentrations of indicated molecules and 1 mM ATP (mean ± s.d., n = 3). (c) Abl kinase activity was measured by using a radiometric kinase assay after incubation of Abl with a peptide substrate in the presence of various concentrations of indicated molecules and γ-^33P-ATP (mean ± s.d., n =3).

Data set [3] has as its system KG-1 cells. Kind of data set: MTT assay, cell viability of KG-1 cells. The data set is classed as cell-based. The conditions noted are these: Homo sapiens, 48 h, mean ± s.d., n = 3, read-out: IC50 values of compounds for leukemia cells. (Tetrazolium dyes change colour on reduction, which living cells bring about.)
The target of data set [4] is T2, human recombinant Abl (Homo sapiens, UniProt P00519).
T2 construct: purchased Eurofins Pharma Discovery Services (UK Limited); host or cells: insect cells
T2 sequence (P00519 whole entry): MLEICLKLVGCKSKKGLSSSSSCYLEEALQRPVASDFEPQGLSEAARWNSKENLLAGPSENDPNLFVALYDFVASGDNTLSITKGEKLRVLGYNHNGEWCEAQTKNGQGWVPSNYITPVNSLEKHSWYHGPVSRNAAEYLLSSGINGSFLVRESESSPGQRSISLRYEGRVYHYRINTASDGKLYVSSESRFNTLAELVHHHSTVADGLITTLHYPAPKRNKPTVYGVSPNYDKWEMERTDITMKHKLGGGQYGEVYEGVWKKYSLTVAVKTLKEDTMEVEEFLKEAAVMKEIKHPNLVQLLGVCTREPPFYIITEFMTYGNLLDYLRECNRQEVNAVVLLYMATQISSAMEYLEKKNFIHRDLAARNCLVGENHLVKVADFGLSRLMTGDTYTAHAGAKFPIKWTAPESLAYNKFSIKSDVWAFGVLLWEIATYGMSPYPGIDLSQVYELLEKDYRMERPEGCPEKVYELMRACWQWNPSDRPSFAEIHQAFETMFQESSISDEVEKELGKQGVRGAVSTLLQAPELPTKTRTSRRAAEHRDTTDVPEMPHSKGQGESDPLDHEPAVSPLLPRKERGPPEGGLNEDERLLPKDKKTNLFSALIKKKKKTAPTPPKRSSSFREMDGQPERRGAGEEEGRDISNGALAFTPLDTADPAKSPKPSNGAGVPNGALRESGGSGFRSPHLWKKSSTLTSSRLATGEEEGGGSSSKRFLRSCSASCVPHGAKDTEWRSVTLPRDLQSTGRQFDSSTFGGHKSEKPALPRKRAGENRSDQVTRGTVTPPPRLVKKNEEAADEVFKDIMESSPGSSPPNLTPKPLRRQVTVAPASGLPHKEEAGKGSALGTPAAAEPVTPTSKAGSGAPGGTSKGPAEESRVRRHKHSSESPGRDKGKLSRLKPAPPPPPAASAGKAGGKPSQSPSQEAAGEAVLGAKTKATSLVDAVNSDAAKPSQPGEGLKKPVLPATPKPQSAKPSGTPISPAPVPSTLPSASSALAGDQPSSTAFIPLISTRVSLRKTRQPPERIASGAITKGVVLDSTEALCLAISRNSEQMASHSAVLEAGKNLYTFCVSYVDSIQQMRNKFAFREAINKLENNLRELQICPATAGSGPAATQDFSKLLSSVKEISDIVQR
Kind of data set: Radiometric Abl kinase assay. The following applies: compared with imatinib. The data set is classed as biochemical. The protocol:
as §1
Abl kinase assays. Abl kinase assays were conducted by Eurofins Pharma Discovery Services (UK Limited). Briefly, each compound was pre-incubated with 0.25 µg/mL of human recombinant Abl (expressed in insect cells) in 20 mM MOPS containing 1 mM EDTA, 0.01% Brij-35, 5% glycerol, 0.1% β-mercaptoethanol and 1 mg/mL BSA for 15 min at 37 °C. To the enzyme mixture was added 0.2 mg/mL of poly(Glu:Tyr), 10 µM ATP and 0.25 µCi [γ^33P]ATP. After incubation for 30 min, 3% H3PO4 was added to the mixture to stop enzyme reactions. An aliquot was removed and counted to determine the amount of [^33P]poly(Glu:Tyr) formed by using a Trilux scintillation counter (Wallac Microbeta 12-detector model, Perkin Elmer).
Supplementary Figure S10. Inhibitory effect of hybrid molecules on Hsp70, Hsp90 and Abl activities. (a) ATPase activity of Hsp70 was measured by using a Pi-Colorlock assay after incubation of an ATPase domain of Hsp70 with various concentrations of indicated molecules and 10 µM ATP (mean ± s.d., n =3). (b) ATPase activity of Hsp90 was measured by using a Pi-Colorlock assay after incubation of Hsp90 with various concentrations of indicated molecules and 1 mM ATP (mean ± s.d., n = 3). […]

Data set [5] deals with U937 cells. Kind of data set: MTT assay, cell viability of U937 cells. The data set is classed as cell-based. The conditions noted are these: Homo sapiens, U-937, 48 h, mean ± s.d., n = 3, read-out: IC50 values of compounds for leukemia cells.
The test system of data set [6] is K562 cells. The experiment in a line: MTT assay, cell viability of K562 cells. The data set is classed as cell-based. The conditions noted are these: Homo sapiens, 48 h, mean ± s.d., n = 3, read-out: IC50 values of compounds for leukemia cells.
Data set [7] relates to Jurkat cells. Kind of data set: MTT assay, cell viability of Jurkat cells. The data set is classed as cell-based. The conditions noted are these: Homo sapiens, 48 h, mean ± s.d., n = 3, read-out: IC50 values of compounds for leukemia cells.
Data set [8] concerns HL-60 cells. The experiment in a line: MTT assay, cell viability of HL-60 cells. The following applies: Homo sapiens, 48 h, mean ± s.d., n = 3, read-out: IC50 values of compounds for leukemia cells. The data set is classed as cell-based.
Data set [9] concerns THP-1 cells. The experiment in a line: MTT assay, cell viability of THP-1 cells. The data set is classed as cell-based. The following applies: Homo sapiens, 48 h, mean ± s.d., n = 3, read-out: IC50 values of compounds for leukemia cells.
Data set [10] concerns HL-60 and K562 cells. The experiment in a line: Flow cytometry, fluorescein-annexin V and PI staining. It is filed as cell-based, human. The conditions noted are these: 24 h; 10 µM Az, 10 µM GD or 4 µM Az-O3-GD. The procedure:
To determine whether Az promotes leukemia cell death via apoptosis, acute leukemia HL-60 and chronic leukemia K562 cells were independently incubated with Az. The treated cells were then exposed to a mixed solution of fluorescein-annexin V and propidium iodide (PI) and flow cytometry analysis was conducted. […] The size of the treated cells was also assessed by using flow cytometry. […] We also investigated if the mitochondrial membrane potential in cells treated with Az is disrupted. To test this possibility, HL-60 and K562 cells were exposed to Az and subsequently stained with a membrane potential sensitive JC-1 probe. […] This serves as another evidence for apoptosis induced by Az.
HL-60 and K562 cells were incubated with each compound for 24 h in culture media. Cells were re-suspended with 500 μL binding buffer (10 mM HEPES, […] and 2.5 mM CaCl2, pH 7.5) and then incubated with the FITC-annexin V apoptosis detection kit with PI according to the protocol provided by the manufacturer. Flow cytometry was carried out by using a BD FACSVerse™ instrument (BD Biosciences) and the data were analyzed by using a FlowJo™ software (BD Biosciences).
(A flow cytometer gives signals particle by particle.)

T1 sequence (P0DMV8 2-386 limits assumed): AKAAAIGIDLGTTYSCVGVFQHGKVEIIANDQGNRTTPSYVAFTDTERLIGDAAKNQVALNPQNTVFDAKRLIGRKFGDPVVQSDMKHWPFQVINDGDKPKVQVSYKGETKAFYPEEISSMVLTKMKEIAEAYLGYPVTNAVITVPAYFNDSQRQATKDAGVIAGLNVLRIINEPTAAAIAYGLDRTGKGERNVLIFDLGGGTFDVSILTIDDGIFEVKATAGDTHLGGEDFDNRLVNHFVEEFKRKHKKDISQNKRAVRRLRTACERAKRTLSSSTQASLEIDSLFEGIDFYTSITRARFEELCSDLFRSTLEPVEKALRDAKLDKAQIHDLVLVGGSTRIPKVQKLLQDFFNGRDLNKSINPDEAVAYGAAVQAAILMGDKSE

Turning to `COc1ccc(-c2nc(-c3cc(C(F)(F)F)cc(C(F)(F)F)c3)n(Cc3ccc(C(=O)NCCOCCOCCNC(=O)COCCOCCOCCNC4=C5C[C@@H](C)C[C@H](OC)[C@H](O)[C@@H](C)/C=C(\C)[C@H](OC(N)=O)[C@@H](OC)/C=C\C=C(/C)C(=O)NC(=CC4=O)C5=O)cc3)c2-c2ccc(OC)cc2)cc1` [Az-amide-GD], the “cytotoxicity relative to the individual inhibitors” value in data set [1] was “poorer cytotoxicity”. Moreover, in data set [2], the “inhibition of the ATPase activity of Hsp70” value (“inhibition” for short) is “lower inhibitory activity towards Hsp70 than Az”.

For orientation: IC50 means the concentration that inhibits the measured activity by half. As for `COc1ccc(-c2nc(-c3cc(C(F)(F)F)cc(C(F)(F)F)c3)n(Cc3ccc(C(=O)NCCOCCOCCOCCOCCN4CCN(Cc5ccc(C(=O)Nc6ccc(C)c(Nc7nccc(-c8cccnc8)n7)c6)cc5)CC4)cc3)c2-c2ccc(OC)cc2)cc1` [Az-O4-Imatinib], the IC50 was greater than 10 µM in [3]; greater than 10 µM in data set [5]; 4.5 ± 0.88 µM in data set [6]; greater than 10 µM in data set [7]; greater than 10 µM in [8]; greater than 10 µM in [9]. For the same compound, in [4], the “inhibitory activity towards Abl kinase” value is recorded as “significantly reduced inhibitory activities towards Abl kinase compared to imatinib”. The “cytotoxicity relative to the individual inhibitors” value in [1] is listed as “poorer cytotoxicity”. Also, the “inhibition” value in [2] is recorded as “much weaker inhibitors of Hsp70 compared to Az”.

Regarding `COc1ccc(-c2nc(-c3cc(C(F)(F)F)cc(C(F)(F)F)c3)n(Cc3ccc(C(=O)NCCOCCOCCNC4=C5C[C@@H](C)C[C@H](OC)[C@H](O)[C@@H](C)/C=C(\C)[C@H](OC(N)=O)[C@@H](OC)/C=C\C=C(/C)C(=O)NC(=CC4=O)C5=O)cc3)c2-c2ccc(OC)cc2)cc1` [Az-GD], the IC50 in data set [3] was determined as 0.91 ± 0.41 µM; in [5], 1.12 ± 0.32 µM; in data set [6], 0.63 ± 0.21 µM; in data set [7] it was 0.89 ± 0.25 µM; in data set [8], 0.73 ± 0.22 µM; in data set [9], 0.36 ± 0.12 µM. For the same compound, the “cytotoxicity relative to the individual inhibitors” value in data set [1] is on record as “greatly enhanced cytotoxicities”.

In the case of `COC1=C2C[C@@H](C)C[C@H](OC)[C@H](O)[C@@H](C)/C=C(\C)[C@H](OC(N)=O)[C@@H](OC)/C=C\C=C(/C)C(=O)NC(=CC1=O)C2=O` [GD, geldanamycin, reference compound], the IC50 is 3.2 ± 1.21 µM in data set [3]; 4.8 ± 1.22 µM in data set [5]; 3.7 ± 1.11 µM in data set [6]; 4.8 ± 1.06 µM in data set [7]; 2.3 ± 0.74 µM in data set [8]; 0.9 ± 0.33 µM in [9]. Further, the “apoptosis, annexin V binding and PI uptake” value in data set [10] was “induces apoptosis”.

As to `COc1ccc(-c2nc(-c3cc(C(F)(F)F)cc(C(F)(F)F)c3)n(Cc3ccc(C(=O)NCCOCCOCCOCCN4CCN(Cc5ccc(C(=O)Nc6ccc(C)c(Nc7nccc(-c8cccnc8)n7)c6)cc5)CC4)cc3)c2-c2ccc(OC)cc2)cc1` [Az-O3-Imatinib], the IC50 in data set [3] is greater than 10 µM; in [5], greater than 10 µM; in [6], 4.3 ± 0.91 µM; in data set [7], greater than 10 µM; in data set [8], greater than 10 µM; in data set [9] it was greater than 10 µM. Also, the “inhibitory activity towards Abl kinase” value in data set [4] is “significantly reduced inhibitory activities towards Abl kinase compared to imatinib”. Besides, the “cytotoxicity relative to the individual inhibitors” value in [1] is “poorer cytotoxicity”. Further, in data set [2], the “inhibition” value was “much weaker inhibitors of Hsp70 compared to Az”.
